Data set [1] deals with NMRI mice. The experiment in a line: Acute self-administration: cocaine reinforcement. Type of data set: in vivo. Conditions: for nose-poking when saline was the i.v.-reinforcer (per se effect): L-152,804 10 mg/kg p.o. vs vehicle p.o.
Data set [2] concerns NMRI mice. The experiment in a line: Acute self-administration: food reinforcement. Type of data set: in vivo. The note with it: L-152,804 10 mg/kg p.o. two hours before; fasted overnight; P=0.573 vs. vehicle pre-treated ensure; FIG. 3. As for the experimental part:
The self-administration apparatus used was described above. The end of the PVC tubing, mentioned above, was secured on the outside of the self-administration box at the top of the nose-poke hole, thereby enabling the mice to reach the end of the PVC tube to acquire the content used as reinforcer (ensure protein drink, Abbott Laboratories, USA). The animals fasted overnight, with water still available.
Male NMRI mice received p.o. administration of L-152,804 (10 mg/kg) or corresponding vehicle. Two hours later, the animals were subjected to the self-administration procedure described above with access to PVC tubing containing ensure (nvehicle=11, nL-152,804=13) or without any drink content (=control, n=16).
Data were analyzed using SPSS (SPSS Inc, USA). In the self-administration experiments, two animals from the L-152,804 experiment were excluded. […] In the first and third self-administration experiments, data were analyzed using one-way analysis of variance (ANOVA) followed by post-hoc LSD t-test. […] Subsequently, after significant treatment effect of cocaine, data were analyzed using one-way ANOVA followed by post-hoc LSD t-tests. […]

The next data set deals with C57Bl/6 mice. Description: Cocaine-induced conditioned place preference (CPP). The data set is classed as in vivo. From the text: The CPP apparatus consisted of eight parallel set-ups, each consisting of two separate compartments measuring 19×19×19 cm. The walls extended upwards with clear Plexiglas plates to a total height of 43 cm, having the function of preventing the mice from jumping out, and at the same time allowing light to enter. The two compartments differed in visual as well as tactile cues. In one compartment, the walls and floor were painted white, and the floor was smooth, whereas in the other compartment, the walls were black, and the floor provided texture by insertion of a grey Lego plate. During habituation, post-conditioning test, extinction, and reinstatement, the mice were free to move between the two compartments through a square hole (3.5×3.5 cm). During conditioning, this opening was closed by insertion of a wooden plate. The movements of the animals were measured with the video-tracking program EthoVision (Noldus, Netherlands).
The CPP procedure consisted of the following consecutive phases: Habituation (2 days), conditioning (8 days), post-conditioning test (1 day), extinction (3 days), reinstatement test (1 day). Habituation (days 1-2): Each day the mice were placed into the white compartment of the CPP boxes with the door open and allowed to explore the compartments for 20 minutes to become habituated to the CPP apparatus. On the second day (i.e., the pre-conditioning test), the time spent in each of the two compartments (black or white) was recorded. This determined the preferred compartment of each mouse. No injections were given during these sessions.
Conditioning (days 3-10): Before eight daily 30 minutes conditioning sessions the animals received i.p. injections of either drug or isotonic saline, and the door between the two compartments was closed. Drug groups received drug injections on drug-days and were placed 2-5 min. later in their non-preferred compartment. On non drug-days, these animals received vehicle injections and were subsequently placed in their preferred compartment. All control animals received injections with vehicle each day and were placed in alternating compartments (black/white) on alternating days. […]
Post-conditioning test (day 11): The test was conducted on the day after the last conditioning session. Mice were allowed free access to both compartments for 20 minutes during which the amount of time spent in each compartment was recorded as described above for the pre-conditioning test. […]
Extinction and reinstatement: During an extinction period of three days the animals were exposed to the apparatus as during the post-conditioning test for 20 minutes each day with open doors and without prior injection. […] Subsequently, the time spent in the previously drug-paired (non-preferred) compartment was recorded for 20 min. […]

The conditions of data set [3]: 2 hrs after oral administration, 10 mg/kg; cited from earlier work.
A further data set relates to rats. Conditions: rats treated with L-152,804; cited from earlier work.

“Also recorded” adds a separate entry of the source.

`CC1(C)CC(=O)C(C2C3=C(CC(C)(C)CC3=O)Oc3ccccc32)C(=O)C1` [L-152,804, 5,5-Dimethyl-2-(2,3,4,9-tetrahydro-3,3-dimethyl-1oxo-1H-xanthen-9-yl)-1,3-cyclohexanedione]: the figures for the “nose-poking when saline was the i.v.-reinforcer (per se effect)” value in the data set with NMRI mice [1] and in the data set on NMRI mice [1] (listed as L-152,802) were “no effect; also recorded: did not significantly decrease” and “No per se effect”, respectively. Moreover, the “self-administration of cocaine (nose-poking), significance of decrease” value in the data set on NMRI mice [1] (L-152,804 10 mg/kg p.o., cocaine 0.03 mg/kg/infusion, P=0.004) is listed as “reaching significance”; with NMRI mice [1] (L-152,804 30 mg/kg p.o., cocaine 0.03 mg/kg/infusion, P=0.002), “reaching significance”. Also, the “cocaine self-administration vs. saline i.v. in L-152,804-pretreated mice” value in the data set on NMRI mice [1] (L-152,804 10 mg/kg p.o., cocaine 0.01-1.0 mg/kg/infusion, post-hoc LSD t-tests) is “no significant doses vs. saline; also recorded: did not self-administer cocaine at a significantly higher rate”. In the data set on NMRI mice [1] (L-152,804 10 mg/kg p.o., vertex of fitted parabola, likelihood ratio test P<0.001), the “downward shift of the cocaine dose-response curve (efficacy of cocaine)” value is “shifted down; also recorded: shifted significantly downward”. Besides, the “shift of the cocaine dose-response curve to the right or left (potency of cocaine)” value with NMRI mice [1] (L-152,804 10 mg/kg p.o., vertex of fitted parabola, likelihood ratio test P=0.25) is reported as “neither shifted significantly to the right nor to the left; also recorded: showed a tendency toward a rightward shift”. Further, in the data set with NMRI mice [1] (cocaine 0.03 mg/kg/infusion i.v., L-152,804 3, 10 or 30 mg/kg p.o. two hours before, FIG. 1), the “self-administration of cocaine (nose-poking)” value was “significantly and dose-dependently decreased”. In the data set on NMRI mice [1] (second experiment, L-152,804 10 mg/kg p.o., cocaine 0.01 mg/kg/infusion as printed), the “nose-poking frequency of i.v.-administered cocaine at the other self-administered cocaine dose” value is “showed a similar trend”. In addition, the “nose-poking frequency of i.v.-administered cocaine at the peak dose of cocaine” value in the data set with NMRI mice [1] (second experiment, L-152,804 10 mg/kg p.o., cocaine 0.03 mg/kg/infusion, P=0.006, FIG. 2) is given as “significantly reduced”. The “food (ensure protein drink) self-administration” value in the data set on NMRI mice [2] is “had no effect; also recorded: did not alter”. Besides, the “induction of cocaine place preference (post-conditioning vs. pre-conditioning test)” value with C57Bl/6 mice (L-152,804 3, 10, 30 mg/kg p.o. two hours prior to cocaine 10 mg/kg i.p. conditioning, FIG. 5A) was “did not attenuate; also recorded: caused significant place preference similar to that observed without the Y5-antagonist”. In the data set on C57Bl/6 mice (L-152,804 3, 10, 30 mg/kg p.o., cocaine priming 5 mg/kg, FIG. 5A), the “reinstatement of cocaine-induced place preference vs. own pre-conditioning test” value is listed as “absent; also recorded: prevented significant reinstatement”. The “reinstatement as percent of the vehicle p.o./saline i.p. group” value with C57Bl/6 mice (L-152,804 3, 10, 30 mg/kg p.o., cocaine priming 5 mg/kg, FIG. 5B) is on record as “dose-dependently attenuated; also recorded: only the highest dose of L-152,804 (30 mg/kg) blocked reinstatement”. For the same compound, the “extinction of cocaine place preference” value with C57Bl/6 mice (L-152,804 3, 10, 30 mg/kg p.o., three extinction days, vehicle/cocaine group reached full extinction on day 3) is “significantly faster; also recorded: full extinction already on the first extinction day”. In addition, the “amount of L-152,804 in the rat brain” value in data set [3] is on record as “significant amount”. In addition, in the data set on rats, the distance travelled result was “no change in distance travelled”.

These data come from patent US20110060037A1, “USE OF NPY Y5 RECEPTOR ANTAGONISTS FOR THE PREVENTION OF PSYCHO-STIMULANT AND OPIOID ABUSE” (priority 2008, published 2011).
